Converted amounts (≈) assume the structure as drawn. Like-named read-outs stand apart in the source and are kept apart here.
Assays:
Assay in all cases: MIC by tube dilution in microtiter plates, stored fosfomycin solution
Assay type in all cases: cell-based
Conditions in all cases: read-out: minimal inhibitory concentration (MIC)
[1] = test system: Staphylococcus hominis AG 1115
Description: (§1) The objective of the present investigation was to find out whether the antimicrobial activity of fosfomycin with a pH suitable for intravenous administration is maintained in a solvent suitable for intravenous use. For this, fosfomycin disodium (14.5 mmol sodium/g) and succinic acid were used to adjust the pH (0.025 grams of succinic acid per gram of fosfomycin).
(§2) A stock solution of 4 g of fosfomycin disodium and succinic acid (0.025 grams of succinic acid per gram of fosfomycin, corresponding to about 3 g of fosfomycin) in 10 ml distilled water was prepared and divided into 5 cryotubes at 2 ml each, and the solution was exposed at different temperatures as follows:
(§3) Aliquots of 2 ml of the sample were stored at −80° C., at refrigerator temperature (2-8° C.), at room temperature (20-25° C.), and at 45-65° C. until the test end. Another 2 ml of the stock solution were stored at refrigerator temperature (2-8° C.) and autoclaved before the tests at 125° C. for 30 minutes. After that, all samples were tested for their antimicrobioal activity.
(§4) To determine the antimicrobial activity of fosfomycin, the minimal inhibitory concentration (MIC) of the 4 mentioned bacteria strains was determined by a tube dilution method in microtiter plates using Mueller-Hinton broth. For the inoculation of the microtiter plates, the inoculum was adjusted to 1.5×104 germs/ml. The evaluation was made after 24 hours of incubation at 37° C.
(§5) Samples were taken, starting with 2,000 μg/ml test substance, diluted by a factor 2. Serial dilutions of 2,000 μg/ml to […] were prepared.

[2] = test system: Staphylococcus aureus ATTC 33592
Description: as §1, §2, §3, §4, §5

[3] = test system: Staphylococcus aureus ATTC 49775
[4] = test system: Escherichia coli AG 1215
[5] = test system: Staphylococcus aureus ATTC 33592; remark: listed apart in the source

Q: For `C[C@@H]1O[C@@H]1P(=O)(O)O` [Fosfomycin, fosfomycin], which MIC ([1]; AG1115, 125 °C (refrigerator storage, autoclaved 30 minutes before tests), storage period 54 days) is on record?
A: 7.8 µg/mL (≈ 56.5 µM)

Q: What about the MIC ([1]; AG1115, 125 °C (refrigerator storage, autoclaved 30 minutes before tests), storage period 59 days) of the same compound?
A: 15.6 µg/mL (≈ 113 µM)

Q: And the MIC ([1]; AG1115, 125 °C (refrigerator storage, autoclaved 30 minutes before tests), storage period 64 days)?
A: 31.2 µg/mL (≈ 226 µM)

Q: And the MIC ([1]; AG1115, 125 °C (refrigerator storage, autoclaved 30 minutes before tests), storage period 92 days)?
A: 31.2 µg/mL (≈ 226 µM)

Q: And the MIC ([1]; AG1115, 648 h, storage temp. 20-25 °C, storage period 27 days)?
A: 31.2 µg/mL (≈ 226 µM)

Q: What about the MIC ([1]; AG1115, 648 h, storage temp. 45-65 °C, storage period 27 days) of the same compound?
A: 15.6 µg/mL (≈ 113 µM)

Q: And the MIC ([1]; AG1115, 648 h, storage temp. −80 °C, storage period 27 days)?
A: 7.8 µg/mL (≈ 56.5 µM)

Q: What about the MIC ([1]; AG1115, storage temp. 4-8 °C, storage period 31 days) of the same compound?
A: 7.8 µg/mL (≈ 56.5 µM)

Q: What about the MIC ([1]; AG1115, storage temp. 4-8 °C, storage period 54 days) of the same compound?
A: 7.8 µg/mL (≈ 56.5 µM)

Q: And the MIC ([1]; AG1115, storage temp. 4-8 °C, storage period 59 days)?
A: 15.6 µg/mL (≈ 113 µM)

Q: And the MIC ([1]; AG1115, storage temp. 20-25 °C, storage period 31 days)?
A: 7.8 µg/mL (≈ 56.5 µM)

Q: What about the MIC ([1]; AG1115, storage temp. 20-25 °C, storage period 54 days) of the same compound?
A: 15.6 µg/mL (≈ 113 µM)

Q: What about the MIC ([1]; AG1115, storage temp. 20-25 °C, storage period 59 days) of the same compound?
A: 7.8 µg/mL (≈ 56.5 µM)

Q: What about the MIC ([1]; AG1115, storage temp. 20-25 °C, storage period 64 days) of the same compound?
A: 31.2 µg/mL (≈ 226 µM)

Q: And the MIC ([1]; AG1115, storage temp. 20-25 °C, storage period 92 days)?
A: 62.5 µg/mL (≈ 453 µM)

Q: What about the MIC ([1]; AG1115, storage temp. 45-65 °C, storage period 31 days) of the same compound?
A: 3.9 µg/mL (≈ 28.2 µM)

Q: And the MIC ([1]; AG1115, storage temp. 45-65 °C, storage period 54 days)?
A: 15.6 µg/mL (≈ 113 µM)

Q: And the MIC ([1]; AG1115, storage temp. 45-65 °C, storage period 59 days)?
A: 15.6 µg/mL (≈ 113 µM)

Q: And the MIC ([1]; AG1115, storage temp. 45-65 °C, storage period 64 days)?
A: 15.6 µg/mL (≈ 113 µM)

Q: And the MIC ([1]; AG1115, storage temp. 45-65 °C, storage period 92 days)?
A: 62.5 µg/mL (≈ 453 µM)

Q: And the MIC ([1]; AG1115, storage temp. −80 °C, storage period 31 days)?
A: 7.8 µg/mL (≈ 56.5 µM)

Q: And the MIC ([1]; AG1115, storage temp. −80 °C, storage period 54 days)?
A: 7.8 µg/mL (≈ 56.5 µM)

Q: And the MIC ([1]; AG1115, storage temp. −80 °C, storage period 59 days)?
A: 15.6 µg/mL (≈ 113 µM)

Q: And the MIC ([1]; AG1115, storage temp. −80 °C, storage period 64 days)?
A: 15.6 µg/mL (≈ 113 µM)

Q: And the MIC ([1]; AG1115, storage temp. −80 °C, storage period 92 days)?
A: 15.6 µg/mL (≈ 113 µM)

Q: And the MIC ([2]; ATTC33592, 0 h, storage temp. 20-25 °C, storage period 0 days)?
A: 7.8 µg/mL (≈ 56.5 µM)

Q: And the MIC ([2]; ATTC33592, 0 h, storage temp. 45-65 °C, storage period 0 days)?
A: 15.6 µg/mL (≈ 113 µM)

Q: And the MIC ([2]; ATTC33592, 0 h, storage temp. −80 °C, storage period 0 days)?
A: 15.6 µg/mL (≈ 113 µM)

Q: And the MIC ([2]; ATTC33592, 125 °C (refrigerator storage, autoclaved 30 minutes before tests), storage period 0 days)?
A: 15.6 µg/mL (≈ 113 µM)

Q: And the MIC ([2]; ATTC33592, 125 °C (refrigerator storage, autoclaved 30 minutes before tests), storage period 19 days)?
A: 31.2 µg/mL (≈ 226 µM)

Q: What about the MIC ([2]; ATTC33592, 125 °C (refrigerator storage, autoclaved 30 minutes before tests), storage period 31 days) of the same compound?
A: 7.8 µg/mL (≈ 56.5 µM)

Q: What about the MIC ([2]; ATTC33592, 456 h, storage temp. 20-25 °C, storage period 19 days) of the same compound?
A: 15.6 µg/mL (≈ 113 µM)

Q: And the MIC ([2]; ATTC33592, 456 h, storage temp. 45-65 °C, storage period 19 days)?
A: 31.2 µg/mL (≈ 226 µM)

Q: What about the MIC ([2]; ATTC33592, 456 h, storage temp. −80 °C, storage period 19 days) of the same compound?
A: 7.8 µg/mL (≈ 56.5 µM)

Q: And the MIC ([2]; ATTC33592, storage temp. 20-25 °C, storage period 31 days)?
A: 7.8 µg/mL (≈ 56.5 µM)

Q: What about the MIC ([2]; ATTC33592, storage temp. 45-65 °C, storage period 31 days) of the same compound?
A: 7.8 µg/mL (≈ 56.5 µM)

Q: And the MIC ([2]; ATTC33592, storage temp. −80 °C, storage period 31 days)?
A: 7.8 µg/mL (≈ 56.5 µM)

Q: And the MIC ([3]; ATTC49775, 0 h, storage temp. 4-8 °C, storage period 0 days)?
A: 7.8 µg/mL (≈ 56.5 µM)

Q: What about the MIC ([3]; ATTC49775, 456 h, storage temp. 4-8 °C, storage period 19 days) of the same compound?
A: 3.9 µg/mL (≈ 28.2 µM)

Q: And the MIC ([3]; ATTC49775, storage temp. 4-8 °C, storage period 31 days)?
A: 3.9 µg/mL (≈ 28.2 µM)

Q: What about the MIC ([4]; AG1215, 648 h, storage temp. 4-8 °C, storage period 27 days) of the same compound?
A: 62.5 µg/mL (≈ 453 µM)

Q: And the MIC ([4]; AG1215, storage temp. 4-8 °C, storage period 59 days)?
A: 62.5 µg/mL (≈ 453 µM)

Q: What about the MIC ([4]; AG1215, storage temp. 4-8 °C, storage period 64 days) of the same compound?
A: 15.6 µg/mL (≈ 113 µM)

Q: What about the MIC ([5]; ATTC33592, 0 h, storage temp. 4-8 °C, storage period 0 days) of the same compound?
A: 15.6 µg/mL (≈ 113 µM)

Q: What about the MIC ([5]; ATTC33592, 456 h, storage temp. 4-8 °C, storage period 19 days) of the same compound?
A: 7.8 µg/mL (≈ 56.5 µM)

Q: And the MIC ([5]; ATTC33592, storage temp. 4-8 °C, storage period 31 days)?
A: 3.9 µg/mL (≈ 28.2 µM)
